Results published in patent publication US5556744A, “Methods and compositions for diagnosing and treating certain HIV infected patients” (The Trustees of the University of Pennsylvania, priority 1994, dated 1996).

Assays:
[1] = system: maternal sera (antibodies); assay: ELISA peptide-binding of maternal sera (Example 6); parameters: species or system human; details: for Number of Non-Transmitters which bound to peptide / Percent of Non-Transmitters which bound to peptide: N = 12; for Number of Transmitters which bound to peptide / Percent of Transmitters which bound to peptide: N = 4
How it was run: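 Third-trimester maternal sera, from HIV-1 transmitting and non-transmitting mothers, were tested by ELISA against ~16-residue peptides spanning HIV-1 external and transmembrane glycoproteins. Each serum was run with at least 40 peptides, and values are the percentage of sera binding each peptide.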

[2] = system: maternal HIV+ sera (antibodies); assay: RIA / ELISA binding of maternal HIV+ sera to gp120 and gp41 peptides (Example 3); parameters: species or system human
How it was run: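 Peptides were coated at 10 μg/ml in carbonate buffer pH 9.6 and blocked with 1% BSA. Sera at 1:50 and 1:500 were incubated overnight at 4°C and detected with ¹²⁵I anti-human IgG (RIA) or HRP/TMB at OD450 (ELISA). Specific binding was taken as peptide minus no-peptide wells, scored as a ratio to normal human serum.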

[3] = Serum No. 1, Non-Transmission Group
[4] = Serum No. 2, Non-Transmission Group
[5] = Serum No. 3, Non-Transmission Group
[6] = Serum No. 4, Transmission Group
[7] = Serum No. 5, Transmission Group
[8] = Serum No. 6, Non-Transmission Group
[9] = Serum No. 7, Non-Transmission Group
[10] = Serum No. 8, Non-Transmission Group
[11] = Serum No. 9, Non-Transmission Group
[12] = Serum No. 10, Transmission Group
[13] = Serum No. 11, Non-Transmission Group
[14] = Serum No. 12, Non-Transmission Group
[15] = Serum No. 13, Transmission Group
[16] = Serum No. 14, Transmission Group
[17] = Serum No. 15, Transmission Group
[18] = Serum No. 16, Non-Transmission Group
[19] = Serum No. 17, Non-Transmission Group
[20] = Serum No. 18, Non-Transmission Group
[21] = Serum No. 19, Transmission Group
[22] = Serum No. 20, Non-Transmission Group

| Substance | Number of Non-Transmitters which bound to peptide [1] | Percent of Non-Transmitters which bound to peptide [1] [%] | Number of Transmitters which bound to peptide [1] | Percent of Transmitters which bound to peptide [1] [%] | Binding of maternal HIV+ serum to peptide (sera/NHS ratio) [2, 3] | Binding of maternal HIV+ serum to peptide (sera/NHS ratio) [2, 4] | Binding of maternal HIV+ serum to peptide (sera/NHS ratio) [2, 5] | Binding of maternal HIV+ serum to peptide (sera/NHS ratio) [2, 6] | Binding of maternal HIV+ serum to peptide (sera/NHS ratio) [2, 7] | Binding of maternal HIV+ serum to peptide (sera/NHS ratio) [2, 8] | Binding of maternal HIV+ serum to peptide (sera/NHS ratio) [2, 9] | Binding of maternal HIV+ serum to peptide (sera/NHS ratio) [2, 10] | Binding of maternal HIV+ serum to peptide (sera/NHS ratio) [2, 11] | Binding of maternal HIV+ serum to peptide (sera/NHS ratio) [2, 12] | Binding of maternal HIV+ serum to peptide (sera/NHS ratio) [2, 13] | Binding of maternal HIV+ serum to peptide (sera/NHS ratio) [2, 14] | Binding of maternal HIV+ serum to peptide (sera/NHS ratio) [2, 15] | Binding of maternal HIV+ serum to peptide (sera/NHS ratio) [2, 16] | Binding of maternal HIV+ serum to peptide (sera/NHS ratio) [2, 17] | Binding of maternal HIV+ serum to peptide (sera/NHS ratio) [2, 18] | also measured |
| --- | --- | --- | --- | --- | --- | --- | --- | --- | --- | --- | --- | --- | --- | --- | --- | --- | --- | --- | --- | --- | --- |
| NYTSLIHSLIEESQNQ [Peptide 41] | 0 | 0 | 0 | 0 | - (specific OD450 or cpm of sera sample binding to peptide divided by the specific OD450 or cpm of NHS sample binding to peptide, which value is less than 2) | - (specific OD450 or cpm of sera sample binding to peptide divided by the specific OD450 or cpm of NHS sample binding to peptide, which value is less than 2) | - (specific OD450 or cpm of sera sample binding to peptide divided by the specific OD450 or cpm of NHS sample binding to peptide, which value is less than 2) | - (specific OD450 or cpm of sera sample binding to peptide divided by the specific OD450 or cpm of NHS sample binding to peptide, which value is less than 2) | - (specific OD450 or cpm of sera sample binding to peptide divided by the specific OD450 or cpm of NHS sample binding to peptide, which value is less than 2) | - (specific OD450 or cpm of sera sample binding to peptide divided by the specific OD450 or cpm of NHS sample binding to peptide, which value is less than 2) | - (specific OD450 or cpm of sera sample binding to peptide divided by the specific OD450 or cpm of NHS sample binding to peptide, which value is less than 2) | - (specific OD450 or cpm of sera sample binding to peptide divided by the specific OD450 or cpm of NHS sample binding to peptide, which value is less than 2) | - (specific OD450 or cpm of sera sample binding to peptide divided by the specific OD450 or cpm of NHS sample binding to peptide, which value is less than 2) | - (specific OD450 or cpm of sera sample binding to peptide divided by the specific OD450 or cpm of NHS sample binding to peptide, which value is less than 2) | - (specific OD450 or cpm of sera sample binding to peptide divided by the specific OD450 or cpm of NHS sample binding to peptide, which value is less than 2) | - (specific OD450 or cpm of sera sample binding to peptide divided by the specific OD450 or cpm of NHS sample binding to peptide, which value is less than 2) | - (specific OD450 or cpm of sera sample binding to peptide divided by the specific OD450 or cpm of NHS sample binding to peptide, which value is less than 2) | - (specific OD450 or cpm of sera sample binding to peptide divided by the specific OD450 or cpm of NHS sample binding to peptide, which value is less than 2) | - (specific OD450 or cpm of sera sample binding to peptide divided by the specific OD450 or cpm of NHS sample binding to peptide, which value is less than 2) | - (specific OD450 or cpm of sera sample binding to peptide divided by the specific OD450 or cpm of NHS sample binding to peptide, which value is less than 2) | Binding of maternal HIV+ serum to peptide (sera/NHS ratio) [2, 19]: - (specific OD450 or cpm of sera sample binding to peptide divided by the specific OD450 or cpm of NHS sample binding to peptide, which value is less than 2); Binding of maternal HIV+ serum to peptide (sera/NHS ratio) [2, 20]: - (specific OD450 or cpm of sera sample binding to peptide divided by the specific OD450 or cpm of NHS sample binding to peptide, which value is less than 2); Binding of maternal HIV+ serum to peptide (sera/NHS ratio) [2, 21]: - (specific OD450 or cpm of sera sample binding to peptide divided by the specific OD450 or cpm of NHS sample binding to peptide, which value is less than 2); Binding of maternal HIV+ serum to peptide (sera/NHS ratio) [2, 22]: - (specific OD450 or cpm of sera sample binding to peptide divided by the specific OD450 or cpm of NHS sample binding to peptide, which value is less than 2) |
| CIVQQQNNLLRAI-EAQQHLLQLTVWGIKQL (CIVQQQNNLLRAIEAQQHLLQLTVWGIKQL) [Peptide 560] | 0 | 0 | 0 | 0 | + (which value is between 2 to 3) | - (specific OD450 or cpm of sera sample binding to peptide divided by the specific OD450 or cpm of NHS sample binding to peptide, which value is less than 2) | - (specific OD450 or cpm of sera sample binding to peptide divided by the specific OD450 or cpm of NHS sample binding to peptide, which value is less than 2) | - (specific OD450 or cpm of sera sample binding to peptide divided by the specific OD450 or cpm of NHS sample binding to peptide, which value is less than 2) | - (specific OD450 or cpm of sera sample binding to peptide divided by the specific OD450 or cpm of NHS sample binding to peptide, which value is less than 2) | - (specific OD450 or cpm of sera sample binding to peptide divided by the specific OD450 or cpm of NHS sample binding to peptide, which value is less than 2) | - (specific OD450 or cpm of sera sample binding to peptide divided by the specific OD450 or cpm of NHS sample binding to peptide, which value is less than 2) | - (specific OD450 or cpm of sera sample binding to peptide divided by the specific OD450 or cpm of NHS sample binding to peptide, which value is less than 2) | - (specific OD450 or cpm of sera sample binding to peptide divided by the specific OD450 or cpm of NHS sample binding to peptide, which value is less than 2) | - (specific OD450 or cpm of sera sample binding to peptide divided by the specific OD450 or cpm of NHS sample binding to peptide, which value is less than 2) | - (specific OD450 or cpm of sera sample binding to peptide divided by the specific OD450 or cpm of NHS sample binding to peptide, which value is less than 2) | - (specific OD450 or cpm of sera sample binding to peptide divided by the specific OD450 or cpm of NHS sample binding to peptide, which value is less than 2) | - (specific OD450 or cpm of sera sample binding to peptide divided by the specific OD450 or cpm of NHS sample binding to peptide, which value is less than 2) | - (specific OD450 or cpm of sera sample binding to peptide divided by the specific OD450 or cpm of NHS sample binding to peptide, which value is less than 2) | - (specific OD450 or cpm of sera sample binding to peptide divided by the specific OD450 or cpm of NHS sample binding to peptide, which value is less than 2) | - (specific OD450 or cpm of sera sample binding to peptide divided by the specific OD450 or cpm of NHS sample binding to peptide, which value is less than 2) | Binding of maternal HIV+ serum to peptide (sera/NHS ratio) [2, 19]: - (specific OD450 or cpm of sera sample binding to peptide divided by the specific OD450 or cpm of NHS sample binding to peptide, which value is less than 2); Binding of maternal HIV+ serum to peptide (sera/NHS ratio) [2, 20]: - (specific OD450 or cpm of sera sample binding to peptide divided by the specific OD450 or cpm of NHS sample binding to peptide, which value is less than 2); Binding of maternal HIV+ serum to peptide (sera/NHS ratio) [2, 21]: - (specific OD450 or cpm of sera sample binding to peptide divided by the specific OD450 or cpm of NHS sample binding to peptide, which value is less than 2); Binding of maternal HIV+ serum to peptide (sera/NHS ratio) [2, 22]: - (specific OD450 or cpm of sera sample binding to peptide divided by the specific OD450 or cpm of NHS sample binding to peptide, which value is less than 2) |
